# Source: the supplement of paper PMC10307832
# Columns and labels:
# Experiment in all cases: relative viability (nuclei count vs DMSO), 5 days (fraction); higher = more cells survive
# [1] = compound: COc1cc2c(Oc3ccc4[nH]c(C)cc4c3F)ncnc2cc1OCCCN1CCCC1 [Cediranib] + COc1cc2c(Oc3ccc(NC(=O)C4(C(=O)Nc5ccc(F)cc5)CC4)cc3F)ccnc2cc1OCCCN1CCOCC1 [Foretinib] (partner 0.25 µM)
# Method in brief: (§1)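 Relative viability is defined as nuclei in treated wells over nuclei in vehicle wells. Duplicate plates were run and medians reported. Lung cancer cell lines in 1536-well plates were dosed by pin tool one day after seeding, with one drug or with a fixed anchor-drug dose plus five library-drug doses (not always all listed) in √10 steps, and nuclei were counted after 5 days.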
# [2] = compound: COc1cc2c(Oc3ccc4[nH]c(C)cc4c3F)ncnc2cc1OCCCN1CCCC1 [Cediranib] + N=C(N)NC(=N)NCCc1ccccc1 [Phenformin] (partner 250 µM)
# Method in brief: as §1
# [3] = compound: Nc1ncn([C@H]2C[C@H](O)[C@@H](CO)O2)c(=O)n1 [Decitabine] + Cc1nc(Nc2ncc(C(=O)Nc3c(C)cccc3Cl)s2)cc(N2CCN(CCO)CC2)n1 [Dasatinib] (partner 0.075 µM)
# Method in brief: as §1
# [4] = compound: O=C(C[C@H]1NCCC[C@@H]1O)Cn1cnc2cc(Br)c(Cl)cc2c1=O (racemic) [Halofuginone] + COc1cc2c(Oc3ccc(NC(=O)C4(C(=O)Nc5ccc(F)cc5)CC4)cc3F)ccnc2cc1OCCCN1CCOCC1 [Foretinib] (partner 0.25 µM)
# Method in brief: as §1
cell line,measurement,setting,value
UMC-11,relative viability,[1]; first compound 0.04 µM,1.1
same,relative viability,[1]; first compound 0.4 µM,1.03
same,relative viability,[1]; first compound 4 µM,1.05
same,relative viability,[2]; first compound 0.04 µM,0.342
same,relative viability,[2]; first compound 0.4 µM,0.346
same,relative viability,[2]; first compound 4 µM,0.3
same,relative viability,[3]; first compound 0.04 µM,0.496
same,relative viability,[3]; first compound 0.1265 µM,0.442
same,relative viability,[3]; first compound 0.4 µM,0.293
same,relative viability,[3]; first compound 1.265 µM,0.335
same,relative viability,[3]; first compound 4 µM,0.327
same,relative viability,[4]; first compound 0.001 µM,1.11
same,relative viability,[4]; first compound 0.003162 µM,1
same,relative viability,[4]; first compound 0.01 µM,0.991
same,relative viability,[4]; first compound 0.03162 µM,0.848
same,relative viability,[4]; first compound 0.1 µM,0.72
